Experimental data published in US20250027041A1, “COMPOSITION FOR INDUCING TRANSDIFFERENTIATION AND STEM CELLS TREATED THEREWITH” (YJ CERAPEUTICS INC., priority 2021, published 2025).

Assays:
[1] = biological target: T1, CtBP1 (Homo sapiens, UniProt Q13363); experiment: Immunoprecipitation, CtBP1 oligomerization in UCB-MSCs; type: cell-based; set-up: expressed in transfected cells; host or cells: human UCB-MSC; conditions: MTOB 300 μM
Protocol: To determine the effect of YJ102 on the regulation of oligomerization of C-terminal Binding Proteins (CtBPs) in human UCB-MSCs, immunoprecipitation analysis was performed. Specifically, UCB-MSCs were dispensed at 4×10^5 cells/ml in a 60 mm culture dish, and the next day, FLAG-CtBP1, HA-CtBP1, FLAG-CtBP2, and HA-CtBP1 were transfected into cells using 4 μl jetPRIME. Thereafter, the cells were treated with YJ102 (stock 30 mM in DMSO) and MTOB (stock 300 mM in DMSO) at 20 μM and 300 μM, respectively (Table 1). After 48 hours of transfection, proteins were extracted in the same manner as in Example 1-1. Protein G agarose slurry was washed with PBS and blocked with 1 ml of 1% BSA, washed with PBS, and added with 1 μg of anti-HA antibody diluted with 1.5 ml of PBS and incubated at 4° C. for 2 hours. Thereafter, the cells were centrifuged at 3,000×g for 2 minutes to remove the supernatant, washed with an IP150 buffer two times, added with 1 μg of the protein extracted above, and incubated at 4° C. overnight. After incubation, the cells were centrifuged at 3,000×g for 2 minutes to remove the supernatant, washed with PBS three times, added with 50 μl of 1 mg/ml HA peptide diluted with PBS, and incubated at room temperature for 10 minutes. […]

[2] = tested on: human UCB-MSCs; experiment: Tuj1 immunochemical assay with CtBP inhibitors; type: cell-based
Protocol: To determine CtBP1-mediated ciNSC5 differentiation by YJ102 in human UCB-MSCs, a CTBP1 mechanism by treatment with NSC95397 or 4-methylthio-2-oxobutanoate (MTOB) was analyzed by immunochemical assay. Specifically, UCB-MSCs were dispensed at 2.1×10^4 cells/well in a 12-well plate containing an 18 mm cover glass (circular) (a DMSO control group was dispensed at 3.5×10^3 cells/well). […] The culture medium was removed, washed with PBS, and fixed with 4% paraformaldehyde at room temperature for 10 minutes. After washed three times with PBS, the cells were permeabilized with PBS-T containing 0.5% Triton X-100 for 10 minutes, washed with PBS-T three times for 10 minutes each, and then blocked with a blocking solution (PBS-T containing 5% BSA and 5% goat serum) for 1 hour. Thereafter, the cells were treated with anti-Tuj1 antibody (Cat. 801201, BioLegend) diluted 1/5000 in a blocking solution and incubated at 4° C. overnight. The next day, the cells were washed 10 times for 10 minutes each with PBS-T, and then treated with anti-mouse IgG-cy3 (Cat. 111-165-003, Jackson ImmunoResearch) diluted 1/2000 in a blocking solution, and incubated for 1 hour in dark conditions. Next, the cells were washed 10 times for 10 minutes each with PBS-T, mounted with a mounting solution containing DAPI, and then observed with a confocal microscope.

[3] = tested on: UCB-MSCs; experiment: CellTiter-Glo proliferation assay; type: cell-based, human; conditions: 10, 20, or 40 μM; 3 or 5 days
Protocol: Thereafter, 100 μl of a CellTiter-Glo reagent prepared by mixing a CellTiter-Glo Buffer with a CellTiter-Glo substrate was added to each well of a 96-well plate, covered with a plate cover, and incubated at room temperature for 30 minutes.

[4] = tested on: UCB-MSC (Promo Cell); experiment: Tuj1 immunochemical assay, UCB-MSC (Promo Cell); type: cell-based, human; conditions: 10, 20 or 30 μM, 5 days
Protocol: (§1) To determine whether transdifferentiation into ciNSC5, neural progenitor cells, occurred similarly even in MSCs of different origins when human UCB-MSCs were treated with YJ101, YJ102, or YJ103 for 5 days, the expression of neuronal markers in differentiated ciNSC5 was confirmed by immunochemical assay using MSCs from human adipose-derived mesenchymal stem cells (AD-MSCs), human bone marrow-derived mesenchymal stem cells ([…]) and human umbilical cord blood-derived mesenchymal stem cells (UCB-MSCs; Promo Cells). Specifically, AD-MSC (StemPro™ Human Adipose-Derived Stem Cell, Gibco, Passage #6) was incubated in a MesenPRO RS™ medium, BM-MSC (ATCC, Passage #6) was incubated in a Mesenchymal Stem Cell Basal Medium for Adipose, Umbilical and Bone Marrow-derived MSC (Cat. PCS-500-030, ATCC) medium, and UCB-MSC (Promo Cell, Passage #6) was incubated in a CellCor™ CD MSC (Cat. YSP001, Xell Therapeutics) medium, and then dispensed at 2.1×10^4 cells/well in a 12-well plate with an 18 mm cover glass (circular) (DMSO control group was dispensed at 3.5×10^3 cells/well). […] The culture medium was removed, washed with PBS, and then fixed with 4% paraformaldehyde at room temperature for 10 minutes. After washed three times with PBS, the cells were permeabilized with PBS-T containing 0.5% Triton X-100 for 10 minutes, washed with PBS-T three times for 10 minutes each, and then blocked with a blocking solution (PBS-T containing 5% BSA and 5% goat serum) for 1 hour. Thereafter, the cells were treated with anti-Tuj1 antibody (Cat. 801201, BioLegend) diluted 1/5000 in a blocking solution and incubated at 4° C. overnight. The next day, the cells were washed 10 times for 10 minutes each with PBS-T, and then treated with anti-mouse IgG-cy3 diluted 1/2000 in a blocking solution, and incubated for 1 hour in dark conditions. Next, the cells were washed 10 times for 10 minutes each with PBS-T, mounted with a mounting solution containing DAPI, and then observed with a confocal microscope.

[5] = tested on: BM-MSC; experiment: Tuj1 immunochemical assay, BM-MSC; type: cell-based, human; conditions: 10, 20 or 30 μM, 5 days
Protocol: as §1

[6] = tested on: AD-MSC; experiment: Tuj1 immunochemical assay, AD-MSC; type: cell-based, human; conditions: 10, 20 or 30 μM, 5 days
Protocol: as §1

[7] = tested on: UCB-MSCs; experiment: Tuj1 immunochemical assay, direct conversion of UCB-MSCs into ciNSC5; type: cell-based, human; conditions: 30 μM, 5 days; for expression of Tuj1: UCB-MSC
Protocol: Immunochemical assay was performed to confirm whether UCB-MSCs were transdifferentiated into ciNSC5, Tuj1-positive neural progenitor cells, by the compounds of the present invention, YJ101, YJ102, and YJ103. Specifically, UCB-MSCs were dispensed at 2.1×10^4 cells/well in a 12-well plate containing an 18 mm cover glass (a DMSO control group was dispensed at 3.5×10^3 cells/well). […] The culture medium was removed, washed with PBS, and then fixed with 4% paraformaldehyde at room temperature for 10 minutes. After washed three times with PBS, the cells were permeabilized with PBS-T containing 0.5% Triton X-100 for 10 minutes, washed with PBS-T three times for 10 minutes each, and then blocked with a blocking solution (PBS-T containing 5% BSA and 5% goat serum) for 1 hour. Thereafter, the cells were treated with anti-Tuj1 antibody (Cat. 801201, BioLegend) diluted 1/5000 in a blocking solution and incubated at 4° C. overnight. The next day, the cells were washed 10 times for 10 minutes each with PBS-T, and then treated with anti-mouse IgG-FITC diluted 1/500 in a blocking solution, and incubated for 1 hour in dark conditions. Next, the cells were washed 10 times for 10 minutes each with PBS-T, mounted with a mounting solution containing DAPI, and then observed with a confocal microscope.

[8] = biological target: T1, CtBP1; experiment: DARTS assay, CtBP1; type: binding; set-up: expressed in transfected cells; host or cells: human UCB-MSC (Kang Stem Cell), lysate; conditions: for overexpressed CtBP1 (flag-CtBP1) protection from degradation by pronase (DARTS): FLAG-CtBP1 transfected UCB-MSC lysate, YJ101 (20 or M), YJ102 (20 or 30 μM), YJ103 (20 or 40 μM); for binding to CtBP1: human UCB-MSC
Protocol: To identify proteins binding to compounds of the present invention, YJ101 (Chemical Formula 1), YJ102 (Chemical Formula 2), and YJ103 (Chemical Formula 3), in human umbilical cord blood-derived mesenchymal stem cells (UCB-MSCs), DART assay was performed. Specifically, UCB-MSCs (Kang Stem Cell, Passage #6) were dispensed into a 100 mm culture dish and incubated in a KSB-3 medium (Cat. K3901, Kang Stem Cell) containing 10% FBS (Cat. 16000044), and then collected and washed with PBS. Thereafter, the cells were added with an IP50 lysis buffer [50 mM Tris-HCl (pH 7.4), 150 mM NaCl, 2 mM MgCl2, and 0.1% NP40], sonicated, and centrifuged at 13,000×g for 10 minutes at 4° C. to obtain the supernatant. The supernatant was added with 1/10 volume of 10×TNC buffer [500 mM Tris-HCl (pH 8.0), 500 mM NaCl, and 100 mM CaCl2)], and protein concentration was measured using a Bradford method. Thereafter, 9 μl of a cell lysate and 1 μl of YJ101 (20 or M), YJ102 (20 or 30 μM), or YJ103 (20 or 40 μM) were mixed in a microcentrifuge tube and incubated at room temperature for 1 hour. A control group was treated with 1 μl of DMSO. After incubation, 1 μl (1 mg/ml) of Pronase (Cat. 10 165 921 001, Roche) diluted to 1 mg/ml using a 1×TNC buffer was added to the microcentrifuge tube and incubated at 37° C. for 15 minutes. After incubation, ⅕ volume of a 5×SDS-PAGE loading buffer was added, heated at 100° C. for 5 minutes, and then SDS-PAGE and Coomassie blue staining were performed. In addition, UCB-MSCs were dispensed at 4×10^5 cells/ml in a 60 mm culture dish, and after 24 hours, 4 μg of FLAG-CtBP1 or FLAG-CtBP2 DNA was transfected using 4 μl of jetPRIME. After 48 hours, the cells were collected, and proteins were extracted and quantified using the same method as above. DARTS assay was performed with the cell lysate of CtBP1 and Y102 labeled with FLAG, and Western blot assay was performed with a flag antibody (Cat. F3165, Sigma).

SMILES	YJ102-induced oligomerization of CtBP1 [1]	expression of Tuj1 in YJ102-treated ciNSC5 ([2]; 300 μM MTOB with 30 μM YJ102, 5 days)	expression of Tuj1 in YJ102-treated ciNSC5 ([2]; 10 μM NSC95397 with 30 μM YJ102, 5 days)	cell proliferation (CellTiter-Glo) [3]	expression of Tuj1 [4]	expression of Tuj1 [5]	expression of Tuj1 [6]	direct conversion from UCB-MSCs to ciNSC5 [7]	expression of Tuj1 [7]	overexpressed CtBP1 (flag-CtBP1) protection from degradation by pronase (DARTS) [8]	binding to CtBP1 [8]
CSCCC(=O)C(=O)O [MTOB, 4-methylthio-2-oxobutanoate, reference compound]	inhibited	reduced	–	–	–	–	–	–	–	–	–
O=C1C(SCCO)=C(SCCO)C(=O)c2ccccc21 [NSC95397]	–	–	reduced	–	–	–	–	–	–	–	–
CCc1ccc(N(C(=O)COC(C)=O)c2nc3cc(Cl)ccc3o2)cc1 [YJ101]	–	–	–	reduced cell proliferation in a concentration-dependent manner	increased	increased	increased	induced direct conversion	increased	protected	bound to CtBP1
CCc1ccc(N(C(=O)CCC(=O)OC)c2nc3cc(Cl)ccc3o2)cc1 [YJ103]	–	–	–	reduced cell proliferation in a concentration-dependent manner	increased	increased	increased	induced direct conversion	increased	protected	bound to CtBP1
